Measured values published in patent US7135615B2, “Chromosome doubling method” (The Curators of the University of Missouri, priority 2001, dated 2006).
Several values for one entry are separate records, joined by “and”; a condition that tells them apart may be missing. Identical values can stand only once. Marks after values point to notes of the source that are not given here.

Test system: maize haploid seedlings of origin Oh43
Assay: doubled haploid production trial, Oh43 haploids (Example 4)
Settings: for Ear: Plants with kernels after selfing % / Tassel: No. of fertile anthers extruded/tassel / Tassel: Plants with fertile sectors % / Ear: Plants with kernels after selfing No. / Tassel: Plants with fertile sectors No. / No. of plants Survived / Ear: No. of kernels produced/ear: 600 kPa, 2 days; for Ear: No. of kernels produced/ear: selfed
Protocol: Ten to nineteen plants were treated for each plot. Self pollinations were conducted on these treated haploids if there were fertile sectors on the tassel. Pollen grains were collected carefully on a sheet of paper and transferred to the silks repeatedly. Silks and husks were cut back prior to pollination in order to permit maximum seed set. The numbers of fertile tassel and ear sectors, as well as the numbers of anthers and selfed kernels were recorded. Statistical analyses were as described above.

[1] = Oh43 haploids, 5 leaf stage, 14 survived
[2] = Oh43 haploids, 6 leaf stage, 12 survived
[3] = Oh43 haploids, 7 leaf stage, 10 survived

SMILES: [N-]=[N+]=O [nitrous oxide gas, nitrous oxide]
- self pollination success rates after treatment (Oh43 haploids): 20–30%
- Ear: Plants with kernels after selfing % (Oh43 haploids, 5 leaf stage): 29 n.s %
- Tassel: No. of fertile anthers extruded/tassel (Oh43 haploids, 5 leaf stage): 11.2* /tassel
- Tassel: Plants with fertile sectors % (Oh43 haploids, 5 leaf stage): 57%
- Ear: Plants with kernels after selfing No. [1]: 4
- Tassel: Plants with fertile sectors No. [1]: 8
- No. of plants Survived (Oh43 haploids, 5 leaf stage, 19 treated): 14
- Ear: No. of kernels produced/ear (Oh43 haploids, 5 leaf stage): 0.6 n.s. /ear
- Ear: Plants with kernels after selfing % (Oh43 haploids, 6 leaf stage): 17%
- Tassel: No. of fertile anthers extruded/tassel (Oh43 haploids, 6 leaf stage): 5.7** /tassel
- Tassel: Plants with fertile sectors % (Oh43 haploids, 6 leaf stage): 92** %
- Ear: Plants with kernels after selfing No. [2]: 2
- Tassel: Plants with fertile sectors No. [2]: 11
- No. of plants Survived (Oh43 haploids, 6 leaf stage, 16 treated): 12
- Ear: No. of kernels produced/ear (Oh43 haploids, 6 leaf stage): 1.0 /ear
- Ear: Plants with kernels after selfing % (Oh43 haploids, 7 leaf stage): 10%
- Tassel: No. of fertile anthers extruded/tassel (Oh43 haploids, 7 leaf stage): 2.6 /tassel
- Tassel: Plants with fertile sectors % (Oh43 haploids, 7 leaf stage): 70* %
- Ear: Plants with kernels after selfing No. [3]: 1
- Tassel: Plants with fertile sectors No. [3]: 7
- No. of plants Survived (Oh43 haploids, 7 leaf stage, 15 treated): 10
- Ear: No. of kernels produced/ear (Oh43 haploids, 7 leaf stage): 0.1 /ear
- Tassel: No. of fertile sectors/tassel (in vivo): 0.8 /tassel and 1.3** /tassel and 1.0 /tassel
